The source of these data is patent US20130109682A1, “CYCLIC ETHER COMPOUNDS USEFUL AS KINASE INHIBITORS” (NOVARTIS AG, priority 2010, published 2013).

What all share (assay type): biochemical
One assay has as its target PIM1 (Homo sapiens, UniProt P11309). Description: KinaseGlo Pim1 ATP depletion assay. In short, it runs like this:
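2.5 nM PIM1 preincubated 15 min with compound and 40 μM BAD peptide in 50 mM HEPES pH 7.5, 5 mM MgCl2, 1 mM DTT, 0.05% BSA, 2.5% DMSO. The reaction was started with 20 μM ATP (final) and run to about 50% ATP depletion. Remaining ATP read by KinaseGlo Plus luminescence to give IC50.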

The target of a further assay is PIM2 (Homo sapiens, UniProt Q9P1W9). Description: KinaseGlo Pim2 ATP depletion assay. In short, it runs like this: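 Luminescent ATP-depletion read-out of PIM2 phosphorylating BAD peptide (RSRHSSYPAGT-OH). Final conditions: 5 nM PIM2, 4 μM ATP, 10 μM peptide, 2.5% DMSO in 50 mM HEPES pH 7.5, 5 mM MgCl2, 1 mM DTT, 0.05% BSA. Enzyme–peptide preincubated 15 min with compound; reaction run to ~50% ATP depletion.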
PIM2, sequence (Q9P1W9 whole entry): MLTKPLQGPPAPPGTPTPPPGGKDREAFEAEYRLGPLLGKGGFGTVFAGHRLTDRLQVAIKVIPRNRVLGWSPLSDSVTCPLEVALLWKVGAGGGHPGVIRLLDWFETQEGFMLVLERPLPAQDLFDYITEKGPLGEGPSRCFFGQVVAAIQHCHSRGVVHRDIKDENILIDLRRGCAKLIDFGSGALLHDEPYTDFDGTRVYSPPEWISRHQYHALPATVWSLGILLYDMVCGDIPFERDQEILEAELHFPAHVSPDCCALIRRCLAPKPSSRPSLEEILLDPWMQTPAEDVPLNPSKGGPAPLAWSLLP
For orientation: In Kinase-Glo more light means more ATP remaining.

Another assay concerns the target PIM3 (Homo sapiens, UniProt Q86V86). Description: KinaseGlo Pim3 ATP depletion assay. In short, it runs like this:
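Kinase was preincubated 15 min with BAD peptide in HEPES pH 7.5/MgCl2/DTT/BSA before ATP was added. Final concentrations were 40 μM ATP, 100 μM BAD peptide and 2.5% DMSO, with 5 nM enzyme. The reaction ran to ~50% ATP depletion and remaining ATP was read by KinaseGlo Plus luminescence.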

Each structure is given as a SMILES string.

PIM1, sequence (P11309 whole entry): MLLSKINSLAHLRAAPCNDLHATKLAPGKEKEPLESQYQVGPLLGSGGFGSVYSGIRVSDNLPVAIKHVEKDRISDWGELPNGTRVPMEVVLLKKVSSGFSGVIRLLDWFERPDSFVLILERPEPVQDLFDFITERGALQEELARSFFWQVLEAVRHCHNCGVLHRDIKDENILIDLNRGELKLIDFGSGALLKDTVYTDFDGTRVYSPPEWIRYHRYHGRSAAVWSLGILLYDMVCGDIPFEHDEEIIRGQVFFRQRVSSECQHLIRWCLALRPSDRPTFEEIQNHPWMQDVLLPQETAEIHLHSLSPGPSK

Broadly, the IC50 is the point on the concentration scale where inhibition reaches its midpoint. A lower IC50 goes with greater potency. For `Nc1ncc(-c2ccccc2)nc1C(=O)Nc1cnccc1[C@H]1C[C@@H](O)[C@@]2(O)CCCC[C@H]2O1` [Example 173, 3-amino-N-(4-((2R,4R,4aS,8aR)-4,4a-dihydroxyoctahydro-2H-chromen-2-yl)pyridin-3-yl)-6-phenylpyrazine-2-carboxamide], the IC50 against PIM1 stood at 2.2 nM; against PIM2 it was 15.7 nM; against PIM3, 3.6 nM.

Consider `CC[C@H]1O[C@@H](c2ccncc2NC(=O)c2nc(-c3ccccc3)ncc2N)C[C@@H](O)[C@@H]1O` [Example 39, 5-amino-N-(4-((2R,4R,5S,6R)-6-ethyl-4,5-dihydroxytetrahydro-2H-pyran-2-yl)pyridin-3-yl)-2-phenylpyrimidine-4-carboxamide], for which the IC50 against PIM1 worked out at 4 nM; against PIM2 it was 40 nM; at PIM3, 4 nM.

`Nc1ncc(-c2ccccc2)nc1C(=O)Nc1cnccc1[C@@H]1C[C@H](O)[C@]2(O)CCCC[C@@H]2O1` [Example 176, 3-amino-N-(4-((2S,4S,4aR,8aS)-4,4a-dihydroxyoctahydro-2H-chromen-2-yl)pyridin-3-yl)-6-phenylpyrazine-2-carboxamide]: the IC50 amounted to 63.8 nM at PIM1, 1820 nM against PIM2 and 202 nM against PIM3.

For `Nc1cnc(-c2c(F)cccc2F)nc1C(=O)Nc1cnccc1[C@H]1C[C@@H](N)[C@@]2(O)CCC[C@H]2O1` [Example 213, 5-amino-N-(4-((2R,4R,4aS,7aR)-4-amino-4a-hydroxyoctahydrocyclopenta[b]pyran-2-yl)pyridin-3-yl)-2-(2,6-difluorophenyl)pyrimidine-4-carboxamide], the 50% inhibitory concentration (IC50) on PIM1 is 3.9 nM; against PIM2, 6.3 nM; at PIM3, 5.8 nM.

Regarding `C[C@H]1O[C@@H](c2ccncc2NC(=O)c2nc(-c3ccccc3)ncc2N)C[C@@H](O)[C@]1(C)O` [Example 32, 5-amino-N-(4-((2R,4R,5S,6R)-4,5-dihydroxy-5,6-dimethyltetrahydro-2H-pyran-2-yl)pyridin-3-yl)-2-phenylpyrimidine-4-carboxamide], the IC50 worked out at 5 nM on PIM1, 44 nM against PIM2 and 3 nM against PIM3.

For the molecule `C[C@H]1O[C@@H](c2ccncc2NC(=O)c2nc(-c3ccccc3)cnc2N)[C@H](F)[C@@H](O)[C@]1(C)O` [Example 58, 3-amino-N-(4-((2S,3R,4S,5S,6R)-3-fluoro-4,5-dihydroxy-5,6-dimethyltetrahydro-2H-pyran-2-yl)pyridin-3-yl)-6-phenylpyrazine-2-carboxamide], the IC50 against PIM1 was found to be 9 nM; against PIM2 it was 276 nM; against PIM3, 27 nM.

For the molecule `C[C@H]1O[C@@H](c2ccncc2NC(=O)c2nc(-c3ccccc3)cnc2N)C[C@@H](O)[C@]1(C)O` [Example 84, 3-amino-N-(4-((2R,4R,5S,6R)-4,5-dihydroxy-5,6-dimethyltetrahydro-2H-pyran-2-yl)pyridin-3-yl)-6-phenylpyrazine-2-carboxamide], the IC50 against PIM1 was found to be 1 nM; against PIM2 it was 33 nM; against PIM3, 3 nM.

As to `Nc1ncc(-c2ccccc2)nc1C(=O)Nc1cnccc1[C@@H]1C[C@H](O)[C@]2(O)CCC[C@@H]2O1` [Example 186, 3-amino-N-(4-((2S,4S,4aR,7aS)-4,4a-dihydroxyoctahydrocyclopenta[b]pyran-2-yl)pyridin-3-yl)-6-phenylpyrazine-2-carboxamide], the IC50 came out at 159 nM against PIM1, 3190 nM against PIM2 and 610 nM at PIM3.

Regarding `C[C@@H]1O[C@H](c2ccncc2NC(=O)c2nc(-c3ccccc3)cnc2N)C[C@H](O)[C@@]1(C)O` [Example 86, 3-amino-N-(4-((2S,4S,5R,6S)-4,5-dihydroxy-5,6-dimethyltetrahydro-2H-pyran-2-yl)pyridin-3-yl)-6-phenylpyrazine-2-carboxamide], the IC50 against PIM1 amounted to 5 nM; against PIM2, 164 nM; against PIM3 it was 15 nM.

For `Nc1ncc(-c2ccccc2)nc1C(=O)Nc1cnccc1[C@H]1C[C@@H](O)[C@@]2(O)CCC[C@H]2O1` [Example 195, 3-amino-N-(4-((2R,4R,4aS,7aR)-4,4a-dihydroxyoctahydrocyclopenta[b]pyran-2-yl)pyridin-3-yl)-6-phenylpyrazine-2-carboxamide], the IC50 against PIM1 was 2.2 nM; against PIM2, 12.1 nM; at PIM3 it was 3.2 nM.

For `O=C1CC[C@H]2O[C@@H](c3ccncc3NC(=O)c3ccc(F)c(-c4c(F)cccc4F)n3)C[C@@H](O)[C@@H]2N1` [Example 196, 6-(2,6-difluorophenyl)-5-fluoro-N-(4-((2R,4R,4aS,8aR)-4-hydroxy-6-oxooctahydro-2H-pyrano[3,2-b]pyridin-2-yl)pyridin-3-yl)picolinamide], the IC50 at PIM1 was determined as 3.4 nM; against PIM2, 10.8 nM; at PIM3 it was 3.6 nM.

In the case of `N[C@@H]1C[C@H](c2ccncc2NC(=O)c2ccc(F)c(-c3c(F)cccc3F)n2)O[C@@H]2CCC[C@]12O` [Example 210, N-(4-((2R,4R,4aS,7aR)-4-amino-4a-hydroxyoctahydrocyclopenta[b]pyran-2-yl)pyridin-3-yl)-6-(2,6-difluorophenyl)-5-fluoropicolinamide], the IC50 on PIM1 was determined as 0.5 nM; against PIM2 it was 2.4 nM; on PIM3 it was 2.3 nM.

In the case of `O=C(Nc1cnccc1[C@H]1C[C@@H](O)[C@@]2(O)CCCC[C@H]2O1)c1c[nH]cc(-c2ccccc2)c1=O` [Example 178, N-(4-((2R,4R,4aS,8aR)-4,4a-dihydroxyoctahydro-2H-chromen-2-yl)pyridin-3-yl)-4-oxo-5-phenyl-1,4-dihydropyridine-3-carboxamide], the IC50 was found to be 154 nM on PIM1, 2180 nM against PIM2 and 124 nM at PIM3.

`C=C1[C@@H](O)C[C@@H](c2ccncc2NC(=O)c2nc(-c3ccccc3)cnc2N)OC12CC2` [Example 5, 3-amino-N-(4-((5S,7S)-7-hydroxy-8-methylene-4-oxaspiro[2.5]octan-5-yl)pyridin-3-yl)-6-phenylpyrazine-2-carboxamide]: the IC50 against PIM1 came out at 25.9 nM; against PIM2 it was 254 nM; on PIM3, 37.3 nM.

`CC[C@]1(O)[C@H](O)C[C@H](c2ccncc2NC(=O)c2nc(-c3c(F)cccc3F)ncc2N)O[C@@H]1C` [Example 143, 5-amino-2-(2,6-difluorophenyl)-N-(4-((2R,4R,5S,6R)-5-ethyl-4,5-dihydroxy-6-methyltetrahydro-2H-pyran-2-yl)pyridin-3-yl)pyrimidine-4-carboxamide]: the IC50 came out at 1.3 nM at PIM1, 3.5 nM at PIM2 and 2.4 nM against PIM3.

As to `Nc1ncc(-c2ccccc2)nc1C(=O)Nc1cnccc1[C@H]1C[C@@H](O)[C@H](O)[C@@H](CCl)O1` [Example 36, 3-amino-N-(4-((2R,4R,5S,6S)-6-(chloromethyl)-4,5-dihydroxytetrahydro-2H-pyran-2-yl)pyridin-3-yl)-6-phenylpyrazine-2-carboxamide], the IC50 at PIM1 is 1 nM; against PIM2, 8 nM; against PIM3, 2 nM.

Regarding `C[C@@H]1O[C@H](c2ccncc2NC(=O)c2nc(-c3ccccc3)cnc2N)[C@@H](F)[C@H](O)[C@@]1(C)O` [Example 63, 3-amino-N-(4-((2R,3S,4R,5R,6S)-3-fluoro-4,5-dihydroxy-5,6-dimethyltetrahydro-2H-pyran-2-yl)pyridin-3-yl)-6-phenylpyrazine-2-carboxamide], the IC50 stood at 6 nM against PIM1, 924 nM against PIM2 and 31 nM against PIM3.
